Assay results taken from ChEMBL document CHEMBL4316596, “Antimicrobial Peptides with High Proteolytic Resistance for Combating Gram-Negative Bacteria” (J Med Chem, 2019).

Assays:
Escherichia coli [1] = experiment: Bactericidal activity against Escherichia coli K88 incubated for 4 hrs followed by culture spread on agar plates and cultured overnight; type: functional; conditions: K88, 4 h, read-out: MBC>99.9
Klebsiella pneumoniae [2] = experiment: Bactericidal activity against Klebsiella pneumoniae incubated for 4 hrs followed by culture spread on agar plates and cultured overnight; type: functional; conditions: read-out: MBC>99.9
Pseudomonas aeruginosa [3] = experiment: Antimicrobial activity against Pseudomonas aeruginosa 25349 clinical isolates after 24 hrs by NCCLS-protocol based assay; type: functional; conditions: Pseudomonas aeruginosa, 25349, 24 h
Pseudomonas aeruginosa [4] = experiment: Antimicrobial activity against Pseudomonas aeruginosa CICC 21625 clinical isolates after 24 hrs by NCCLS-protocol based assay; type: functional; conditions: CICC 21625, 24 h
Escherichia coli [5] = experiment: Bactericidal activity against Escherichia coli UB1005 incubated for 4 hrs followed by culture spread on agar plates and cultured overnight; type: functional; conditions: UB1005, 4 h, read-out: MBC>99.9
Pseudomonas aeruginosa [6] = experiment: Bactericidal activity against Pseudomonas aeruginosa 26305 clinical isolates incubated for 4 hrs followed by culture spread on agar plates and cultured overnight; type: functional; conditions: Pseudomonas aeruginosa, 26305, 4 h; read-out: MBC>99.9
Pseudomonas aeruginosa [7] = experiment: Antimicrobial activity against Pseudomonas aeruginosa CICC 21630 clinical isolates after 24 hrs by NCCLS-protocol based assay; type: functional; conditions: CICC 21630, 24 h
Escherichia coli [8] = experiment: Antimicrobial activity against Escherichia coli ATCC 25922 after 24 hrs by NCCLS-protocol based assay; type: functional; conditions: ATCC 25922, 24 h
Escherichia coli [9] = experiment: Bactericidal activity against Escherichia coli 078 incubated for 4 hrs followed by culture spread on agar plates and cultured overnight; type: functional; conditions: Escherichia coli, 078, 4 h; read-out: MBC>99.9
Escherichia coli [10] = experiment: Antimicrobial activity against Escherichia coli K99 after 24 hrs by NCCLS-protocol based assay; type: functional; conditions: K99, 24 h
Pseudomonas aeruginosa [11] = experiment: Bactericidal activity against Pseudomonas aeruginosa 25349 clinical isolates incubated for 4 hrs followed by culture spread on agar plates and cultured overnight; type: functional; conditions: Pseudomonas aeruginosa, 25349, 4 h; read-out: MBC>99.9
Escherichia coli [12] = experiment: Bactericidal activity against Escherichia coli K99 incubated for 4 hrs followed by culture spread on agar plates and cultured overnight; type: functional; conditions: K99, 4 h, read-out: MBC>99.9
Escherichia coli [13] = experiment: Antimicrobial activity against Escherichia coli 078 after 24 hrs by NCCLS-protocol based assay; type: functional; conditions: Escherichia coli, 078, 24 h
Pseudomonas aeruginosa [14] = experiment: Bactericidal activity against Pseudomonas aeruginosa PAO1 incubated for 4 hrs followed by culture spread on agar plates and cultured overnight; type: functional; conditions: PAO1, 4 h, read-out: MBC>99.9
Escherichia coli [15] = experiment: Bactericidal activity against Escherichia coli ATCC 25922 incubated for 4 hrs followed by culture spread on agar plates and cultured overnight; type: functional; conditions: ATCC 25922, 4 h, read-out: MBC>99.9
Pseudomonas aeruginosa [16] = experiment: Antimicrobial activity against Pseudomonas aeruginosa ATCC 27853 after 24 hrs by NCCLS-protocol based assay; type: functional; conditions: ATCC 27853, 24 h
Acinetobacter baumannii [17] = experiment: Antimicrobial activity against Acinetobacter baumannii after 24 hrs by NCCLS-protocol based assay; type: functional
Acinetobacter baumannii [18] = experiment: Bactericidal activity against Acinetobacter baumannii incubated for 4 hrs followed by culture spread on agar plates and cultured overnight; type: functional; conditions: read-out: MBC>99.9
Escherichia coli [19] = experiment: Antimicrobial activity against Escherichia coli UB1005 after 24 hrs by NCCLS-protocol based assay; type: functional; conditions: UB1005, 24 h
Salmonella typhimurium [20] = experiment: Bactericidal activity against Salmonella typhimurium C7731 incubated for 4 hrs followed by culture spread on agar plates and cultured overnight; type: functional, Salmonella enterica subsp. enterica serovar Typhimurium; conditions: Salmonella enterica, C7731, 4 h; read-out: MBC>99.9
Klebsiella pneumoniae [21] = experiment: Antimicrobial activity against Klebsiella pneumoniae after 24 hrs by NCCLS-protocol based assay; type: functional
Pseudomonas aeruginosa [22] = experiment: Bactericidal activity against Pseudomonas aeruginosa CICC 21630 clinical isolates incubated for 4 hrs followed by culture spread on agar plates and cultured overnight; type: functional; conditions: CICC 21630, 4 h, read-out: MBC>99.9
Salmonella typhimurium [23] = experiment: Antimicrobial activity against Salmonella typhimurium ATCC 14028 after 24 hrs by NCCLS-protocol based assay; type: functional, Salmonella enterica subsp. enterica serovar Typhimurium; conditions: Salmonella enterica, ATCC 14028, 24 h
Escherichia coli [24] = experiment: Antimicrobial activity against Escherichia coli K88 after 24 hrs by NCCLS-protocol based assay; type: functional; conditions: K88, 24 h
[25] = Antimicrobial activity against Salmonella pullorum C7913 after 24 hrs by NCCLS-protocol based assay; type: functional, Salmonella enterica subsp. enterica serovar Pullorum; conditions: Salmonella enterica, C7913, 24 h
Pseudomonas aeruginosa [26] = experiment: Antimicrobial activity against Pseudomonas aeruginosa 26305 clinical isolates after 24 hrs by NCCLS-protocol based assay; type: functional; conditions: Pseudomonas aeruginosa, 26305, 24 h
[27] = Bactericidal activity against Salmonella pullorum C7913 incubated for 4 hrs followed by culture spread on agar plates and cultured overnight; type: functional, Salmonella enterica subsp. enterica serovar Pullorum; conditions: Salmonella enterica, C7913, 4 h; read-out: MBC>99.9
Pseudomonas aeruginosa [28] = experiment: Bactericidal activity against Pseudomonas aeruginosa ATCC 27853 incubated for 4 hrs followed by culture spread on agar plates and cultured overnight; type: functional; conditions: ATCC 27853, 4 h, read-out: MBC>99.9
Pseudomonas aeruginosa [29] = experiment: Bactericidal activity against Pseudomonas aeruginosa CICC 21625 clinical isolates incubated for 4 hrs followed by culture spread on agar plates and cultured overnight; type: functional; conditions: CICC 21625, 4 h, read-out: MBC>99.9
Salmonella typhimurium [30] = experiment: Antimicrobial activity against Salmonella typhimurium C7731 after 24 hrs by NCCLS-protocol based assay; type: functional, Salmonella enterica subsp. enterica serovar Typhimurium; conditions: Salmonella enterica, C7731, 24 h
Pseudomonas aeruginosa [31] = experiment: Antimicrobial activity against Pseudomonas aeruginosa PAO1 after 24 hrs by NCCLS-protocol based assay; type: functional; conditions: PAO1, 24 h
Salmonella typhimurium [32] = experiment: Bactericidal activity against Salmonella typhimurium ATCC 14028 incubated for 4 hrs followed by culture spread on agar plates and cultured overnight; type: functional, Salmonella enterica subsp. enterica serovar Typhimurium; conditions: Salmonella enterica, ATCC 14028, 4 h; read-out: MBC>99.9

| MIC95 (Pseudomonas aeruginosa [3]) [µM] | MIC95 (Pseudomonas aeruginosa [4]) [µM] | MIC95 (Pseudomonas aeruginosa [7]) [µM] | MIC95 (Escherichia coli [8]) [µM] | MIC95 (Escherichia coli [10]) [µM] | MIC95 (Escherichia coli [13]) [µM] | MIC95 (Pseudomonas aeruginosa [16]) [µM] | MIC95 (Acinetobacter baumannii [17]) [µM] | MIC95 (Escherichia coli [19]) [µM] | Substance | MBC (Escherichia coli [1]) [µM] | MBC (Klebsiella pneumoniae [2]) [µM] | MBC (Escherichia coli [5]) [µM] | MBC (Pseudomonas aeruginosa [6]) [µM] | MBC (Escherichia coli [9]) [µM] | MBC (Pseudomonas aeruginosa [11]) [µM] | MBC (Escherichia coli [12]) [µM] | MBC (Pseudomonas aeruginosa [14]) [µM] | MBC (Escherichia coli [15]) [µM] | MBC (Acinetobacter baumannii [18]) [µM] | MBC (Salmonella typhimurium [20]) [µM] | also measured |
| --- | --- | --- | --- | --- | --- | --- | --- | --- | --- | --- | --- | --- | --- | --- | --- | --- | --- | --- | --- | --- | --- |
| > 64 | > 64 | > 64 | 16 | 2 | 32 | > 64 | 4 | 4 | H-IKPIIKPIIKPIIKPIIKPIIKPIIKPIIKPI-NH2 | 2 | > 64 | 4 | > 64 | > 64 | > 64 | 4 | > 64 | 16 | 4 | > 64 | MIC95 (Klebsiella pneumoniae [21]): 64 µM; MBC (Pseudomonas aeruginosa [22]): > 64 µM; MIC95 (Salmonella typhimurium [23]): > 64 µM; MIC95 (Escherichia coli [24]): 1 µM; MIC95 [25]: > 64 µM; MIC95 (Pseudomonas aeruginosa [26]): > 64 µM; MBC [27]: > 64 µM; MBC (Pseudomonas aeruginosa [28]): > 64 µM; MBC (Pseudomonas aeruginosa [29]): > 64 µM; MIC95 (Salmonella typhimurium [30]): > 64 µM; MIC95 (Pseudomonas aeruginosa [31]): > 64 µM; MBC (Salmonella typhimurium [32]): > 64 µM |
| > 64 | > 64 | > 64 | > 64 | > 64 | > 64 | > 64 | > 64 | > 64 | H-VKPVVKPVVKPVVKPVVKPVVKPVVKPV-NH2 | > 64 | > 64 | > 64 | > 64 | > 64 | > 64 | > 64 | > 64 | > 64 | > 64 | > 64 | MIC95 (Klebsiella pneumoniae [21]): > 64 µM; MBC (Pseudomonas aeruginosa [22]): > 64 µM; MIC95 (Salmonella typhimurium [23]): > 64 µM; MIC95 (Escherichia coli [24]): > 64 µM; MIC95 [25]: > 64 µM; MIC95 (Pseudomonas aeruginosa [26]): > 64 µM; MBC [27]: > 64 µM; MBC (Pseudomonas aeruginosa [28]): > 64 µM; MBC (Pseudomonas aeruginosa [29]): > 64 µM; MIC95 (Salmonella typhimurium [30]): > 64 µM; MIC95 (Pseudomonas aeruginosa [31]): > 64 µM; MBC (Salmonella typhimurium [32]): > 64 µM |
| > 64 | > 64 | > 64 | > 64 | > 64 | > 64 | > 64 | > 64 | > 64 | H-IKPIIKPIIKPIIKPIIKPI-NH2 | > 64 | > 64 | > 64 | > 64 | > 64 | > 64 | > 64 | > 64 | > 64 | > 64 | > 64 | MIC95 (Klebsiella pneumoniae [21]): > 64 µM; MBC (Pseudomonas aeruginosa [22]): > 64 µM; MIC95 (Salmonella typhimurium [23]): > 64 µM; MIC95 (Escherichia coli [24]): > 64 µM; MIC95 [25]: > 64 µM; MIC95 (Pseudomonas aeruginosa [26]): > 64 µM; MBC [27]: > 64 µM; MBC (Pseudomonas aeruginosa [28]): > 64 µM; MBC (Pseudomonas aeruginosa [29]): > 64 µM; MIC95 (Salmonella typhimurium [30]): > 64 µM; MIC95 (Pseudomonas aeruginosa [31]): > 64 µM; MBC (Salmonella typhimurium [32]): > 64 µM |
| > 64 | > 64 | > 64 | > 64 | > 64 | > 64 | > 64 | > 64 | > 64 | H-IKPIIKPIIKPIIKPI-NH2 | > 64 | > 64 | > 64 | > 64 | > 64 | > 64 | > 64 | > 64 | > 64 | > 64 | > 64 | MIC95 (Klebsiella pneumoniae [21]): > 64 µM; MBC (Pseudomonas aeruginosa [22]): > 64 µM; MIC95 (Salmonella typhimurium [23]): > 64 µM; MIC95 (Escherichia coli [24]): > 64 µM; MIC95 [25]: > 64 µM; MIC95 (Pseudomonas aeruginosa [26]): > 64 µM; MBC [27]: > 64 µM; MBC (Pseudomonas aeruginosa [28]): > 64 µM; MBC (Pseudomonas aeruginosa [29]): > 64 µM; MIC95 (Salmonella typhimurium [30]): > 64 µM; MIC95 (Pseudomonas aeruginosa [31]): > 64 µM; MBC (Salmonella typhimurium [32]): > 64 µM |
